The values below come from ChEMBL document CHEMBL1201862, “PubChem BioAssay data set” (2004).

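Results reflect a 48-hour exposure of cells in 96-well plates to compound at five concentrations. Abbreviation: GI50, concentration required for 50% inhibition of growth.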 Calls of active or inactive are those of the source. Cut-off read from the data, not from the text of the source: active = GI50 up to about 1.1 µM and inactive = higher.

What all share (assay): growth of human tumour cells (NCI), 48 h
Experiment [1] concerns 786-0.
Experiment [2] concerns A498.
Experiment [3] deals with A549.
Experiment [4] relates to HCT-15.
The test system of experiment [5] is HOP-62.
Experiment [6] relates to HT-29.
Experiment [7] deals with IGROV-1.
Experiment [8] relates to KM12.
The test system of experiment [9] is Malme-3M.
Experiment [10] has as its system NCI-H226.
Experiment [11] concerns OVCAR-4.
The test system of experiment [12] is RXF 393.
The subject of experiment [13] is SF-295.
Experiment [14] relates to SK-MEL-5.
Experiment [15] deals with SN12C.
The test system of experiment [16] is SNB-19.
Experiment [17] has as its system SW-620.
In experiment [18] the test system is U-251.

As for `COC(=O)C(C(=O)C(=O)Nc1ccc(N)cc1[N+](=O)[O-])c1nc2ccc(Cl)cc2nc1O` (configuration not stated), the GI50 is > 100 µM (inactive) in experiment [1]; > 100 µM (inactive) in [2]; > 100 µM (inactive) in experiment [3]; more than 100 µM in [4]; > 100 µM (inactive) in [5]; > 100 µM (inactive) in experiment [6]. The GI50 in experiment [7] is > 100 µM (inactive); in experiment [8] it was > 100 µM (inactive); in experiment [9], > 100 µM (inactive); in experiment [10] it was 63 µM (inactive); in experiment [11], > 100 µM (inactive); in [12], 60.7 µM (inactive). In addition, the GI50 in experiment [13] was > 100 µM (inactive); in [14], 95.5 µM (inactive); in [15], > 100 µM (inactive); in [16] it was > 100 µM (inactive); in experiment [17] it was > 100 µM (inactive).
Take `C[C@]12CCc3nonc3C1CC[C@@H]1C2CC[C@]2(C)NC(=O)CCC12` (some centres not stated): the GI50 in experiment [1] was > 100 µM (inactive); in experiment [2] it was > 100 µM (inactive); in [3], > 100 µM (inactive); in experiment [4], more than 100 µM; in experiment [5], > 100 µM (inactive); in experiment [6] it was > 100 µM (inactive). The GI50 in [7], in experiment [8], in [9], in [10], in experiment [11] and in experiment [12] was > 100 µM (inactive) in each case. Besides, the GI50 in [13], in experiment [14], in experiment [15], in [16], in [17] and in experiment [18] was > 100 µM (inactive) throughout.
In the case of `COc1ccc(C2C(Cl)C(=O)N2NC(=O)c2ccc(NC(C)=O)cc2)cc1` (configuration not stated), the GI50 in [1] was > 100 µM (inactive); in [2], > 100 µM (inactive); in [3] it was > 100 µM (inactive); in [4], more than 100 µM; in [5] it was > 100 µM (inactive); in experiment [6], > 100 µM (inactive). The GI50 in [7], in experiment [9], in [10], in experiment [11], in [12] and in experiment [13] was > 100 µM (inactive) throughout. Moreover, the GI50 in [14], in experiment [15], in experiment [16], in experiment [17] and in experiment [18] was > 100 µM (inactive) each time.
For `Cc1c(C(=O)CC(=O)C(=O)Nc2ccc(Cl)cc2)[n+]([O-])c2ccccc2[n+]1[O-]`, the GI50 was > 100 µM (inactive) in experiment [1]; > 100 µM (inactive) in [2]; > 100 µM (inactive) in experiment [3]; more than 100 µM in [4]; > 100 µM (inactive) in [7]; > 100 µM (inactive) in [8]. For the same compound, the GI50 in [9], in experiment [10], in experiment [11], in experiment [13], in experiment [14] and in experiment [15] was > 100 µM (inactive) each time. For the same compound, the GI50 in experiment [16], in [17] and in experiment [18] was > 100 µM (inactive) throughout.
